From US20050107682A1, “fMRI system for use in assessing the efficacy of therapies in treating CNS disorders” (priority 2003, published 2005)

Test system: PD patients
Assay: fMRI of PD patients performing paced finger tapping (PFT), on and off dopamine supplementation
Assay type: in vivo
Experimental: In this fMRI study, ten PD patients and thirteen healthy age-matched controls were imaged while performing the PFT. PD patients underwent two imaging sessions, one on and the other off dopamine supplementation. For this study whole-brain fMRI was performed on a 1.5 Tesla General Electric Signa scanner equipped with a 3-axis local gradient head coil and an elliptical end-capped quadrature radiofrequency coil. Foam padding was used to limit head motion within the coil. Echo-planar images were collected using a single-shot, blipped gradient-echo echo-planar pulse sequence (TE=40 ms, TR=3.0 seconds, 90° flip angle, FOV=240 mm, matrix=64×64). Twenty-two contiguous sagittal 6 mm thick slices were collected to provide coverage of the entire brain (voxel size 3.75×3.75×6 mm). Overall, a total of 136 images were collected per run. Prior to functional imaging, high-resolution, three-dimensional, spoiled gradient-recalled at steady-state (GRASS) anatomic images were collected (TE=5 ms, TR=24 ms, 40° flip angle, NEX=1, slice thickness=1.2 mm, FOV=24 cm, matrix=256×128) for anatomic localization and co-registration.

N[C@@H](Cc1ccc(O)c(O)c1)C(=O)O [Levodopa]
effect on the S task (fMRI activation) (PD patients ON vs OFF medication, S condition of PFT task): relatively little effect
spatial extent of activation within the SMC, SMA, and putamen (PD patients, fMRI during PFT, on vs off dopamine replacement): increase
brain activation patterns (PD patients, fMRI during PFT, relative to healthy controls): partially “normalized”
PFT performance (PD patients, on vs off dopamine supplementation): lack of improvement
